Assay results published in ChEMBL document CHEMBL1151346, “Alkaloids of Thalictrum XXXIV. Three New Alkaloids, Thalmirabine, Thalistine, and O-Methylthalibrine, and Others From Roots of Thalictrum minus Race B” (1980).
Converted amounts (≈) assume the structure as drawn.

Columns and labels:
Format in all cases: functional
[1] = test system: Mycolicibacterium smegmatis; experiment: Antimicrobial activity against Mycobacterium smegmatis
Staphylococcus aureus = experiment: Antimicrobial activity against Staphylococcus aureus
Candida albicans = experiment: Antimicrobial activity against Candida albicans

Structure (SMILES)	MIC [1] [µg/mL]	MIC (Staphylococcus aureus) [µg/mL]	MIC (Candida albicans) [µg/mL]
COc1ccc(C[C@H]2c3cc(OC)c(OC)c(O)c3CCN2C)cc1Oc1ccc(C[C@H]2c3cc4c(c(OC)c3CCN2C)OCO4)cc1 [THALISTINE]	100 (≈ 150 µM)	1000 (≈ 1500 µM)	–
COc1ccc2cc1Oc1ccc(cc1)C[C@H]1c3c(c(O)c(OC)c(OC)c3Oc3c4c(cc(OC)c3OC)[C@H](C2)N(C)CC4)CCN1C [THALIMIRABINE]	100 (≈ 150 µM)	–	–
COc1cc2c(cc1OC)[C@H](Cc1ccc(Oc3cc(C[C@H]4c5cc(OC)c(OC)cc5CCN4C)ccc3OC)cc1)N(C)CC2	100 (≈ 157 µM)	–	500 (≈ 783 µM)
